Measured values from patent US10183022B2, “Pharmaceutical composition for treating ulcerative colitis” (EA Pharma Co., Ltd., priority 2014, dated 2019).
“And” between values parts separate entries of the source, which are not always exact repeats. Equal entries are not always repeated.

Assays:
[1] = test system: ulcerative colitis patients in an active stage; assay: Clinical study, 960 mg orally 3 times a day for 8 weeks: Riley score (histopathological assessment of large intestinal mucosal biopsy); assay type: in vivo, human
Description: (§1) The compound of Example 1 or the compound of Comparative Example 1 was orally administered after meals 3 times a day. The number of the given tablets was 8 per administration (i.e., the amount of the compound (1) of Example 1 administered was 960 mg per administration). The administration period was 8 weeks. The compounds were administered until the timing after the breakfast on the day before the assessment day at Week 8.
At the time of the endoscopic examination on the large intestine for the mucosal finding assessment, large intestinal mucosal tissues were sampled (biopsy). The biopsy for the histopathological assessment at Week 0 was conducted during the endoscopic examination on the large intestine for the eligibility determination. […] The sampled tissues were fixed with formalin to prepare histopathological specimens.
The histopathological assessment was scored by a histopathological assessment central adjudication committee according to the following criteria. A Riley score is a total score of the following items.

[2] = test system: ulcerative colitis patients in an active stage; assay: Clinical study, 960 mg orally 3 times a day for 8 weeks: Mayo score, partial Mayo score, response rate, remission rate; assay type: in vivo, human; set-up: key to Mayo score, Mean / Mayo score, Minimum / Mayo score, Maximum / Mayo score, Upper quartile / Mayo score, Median / Mayo score, Lower quartile: Mayo score = total of 4 subscores (stool, bloody stool, mucosa, global); key to Mayo score, difference in mean between Example 1 and Comparative Example 1: Mayo score points (total of 4 subscores)
Description: A tablet comprising 120 mg of the compound of the formula (1) was coated with a film. Thus, a film-coated tablet was prepared (compound of Example 1).
as §1
As the subjects, 102 cases (Comparative Example 1: 51 cases, Example 1: 51 cases) were analyzed for assessment items to be described later.
The investigators or sub-investigators assessed subscores (“stool frequency,” “bloody stool,” “mucosal finding,” and “physician's global assessment”) of the Mayo score according to (1) to (4) below. A Mayo score was a total value of four subscore items of “stool frequency,” “bloody stool,” “mucosal finding,” and “physician's global assessment.” Meanwhile, a partial Mayo score was a total value of three subscore items of the Mayo score excluding “mucosal finding.” Note that, for the Mayo score and the partial Mayo score at Week 0, scores obtained at the time of the eligibility determination were used.
A proportion of subjects satisfying the following conditions (a) and (b) (response rate): • (a) the Mayo score was reduced by 30% or more and by 3 points or more in comparison with that at Week 0; and • (b) the subscore for bloody stool was reduced by 1 point or more in comparison with that at Week 0 or was 1 point or less.
Regarding the response rate (proportion of response cases) (Week 8), Example 1 was compared with Comparative Example 1 by setting a logistic regression model using the following adjusting factors as covariates to conduct a superiority test.
• 1. either subjects on whom a 5-ASA preparation (including a SASP preparation) or a corticosteroid preparation has an insufficient effect or who are intolerant to a 5-ASA preparation (including a SASP preparation) or a corticosteroid preparation; and • 2. the Mayo scores (6 points or more but 7 points or less, 8 points or more but 10 points or less) on the eligibility verification day. (1) Main Analysis
Using the response rate at Week 8 as a primary endpoint, a main effect model was set as the main analysis.
A remission rate is a proportion of subjects each having a Mayo score of 2 points or less with the individual subscores of 1 point or less.

`COC(=O)[C@H](Cc1ccc(-n2c(=O)c3cc(N(C)C)ccc3n(C)c2=O)cc1)NC(=O)c1c(Cl)cccc1Cl` [Example 1, methyl(2S)-2-(2,6-dichlorobenzamide)-3-{4-[6-(dimethylamino)-1-methyl-2,4-dioxo-1,4-dihydroquinazolin-3(2H)-yl]phenyl}propanoate] was tested, and the “Riley score, Lower quartile” value ([1]; Week 0) was 9.0, the “Riley score, Maximum” value ([1]; Week 0) was 17 and the “Riley score, Mean” value ([1]; Week 0) was 11.8±2.8 and 11.8. The “Riley score, Median” value ([1]; Week 0) was 12.0, the “Riley score, Minimum” value ([1]; Week 0) was 6 and the “Riley score, Upper quartile” value ([1]; Week 0) was 14.0. The “Riley score, Lower quartile” value ([1]; Week 8) was 6.0, the “Riley score, Maximum” value ([1]; Week 8) was 16 and the “Riley score, Mean” value ([1]; Week 8) was 8.6±3.4 and 8.6. For the same compound, the “Riley score, Median” value ([1]; Week 8) was 9.0, the “Riley score, Minimum” value ([1]; Week 8) was 3 and the “Riley score, Upper quartile” value ([1]; Week 8) was 11.0. The “Riley score, difference in mean between Example 1 and Comparative Example 1” value ([1]; Week 8) was −1.96, the “Response rate in comparison with Comparative Example (placebo)” value ([2]; 960 mg orally 3 times a day for 8 weeks) was “significantly improved” and the Response rate ([2]; 3 months or more but less than 6 months after remission induction therapy started (6/10 cases)) was 60.0%. The Response rate ([2]; 6 months or more after remission induction therapy started (5/11 cases)) was 45.5%, the Response rate ([2]; Mayo score 6 points or more but 7 points or less (15/20 cases)) was 75.0% and the Response rate ([2]; Mayo score 8 points or more but 10 points or less (17/31 cases)) was 54.8%. For the same compound, the “Mayo score, Lower quartile” value ([2]; Week 0) was 7.0, the “Mayo score, Maximum” value ([2]; Week 0) was 10 and the “Mayo score, Mean” value ([2]; Week 0) was 7.8±1.2 and 7.8. The “Mayo score, Median” value ([2]; Week 0) was 8.0, the “Mayo score, Minimum” value ([2]; Week 0) was 6 and the “Mayo score, Upper quartile” value ([2]; Week 0) was 9.0. The “Partial Mayo score, Lower quartile” value ([2]; Week 0) was 5.0, the “Partial Mayo score, Maximum” value ([2]; Week 0) was 8 and the “Partial Mayo score, Mean” value ([2]; Week 0) was 5.7±1.1 and 5.7. The “Partial Mayo score, Median” value ([2]; Week 0) was 6.0, the “Partial Mayo score, Minimum” value ([2]; Week 0) was 4 and the “Partial Mayo score, Upper quartile” value ([2]; Week 0) was 6.0. For the same compound, the “Partial Mayo score, Lower quartile” value ([2]; Week 2) was 3.0, the “Partial Mayo score, Maximum” value ([2]; Week 2) was 8 and the “Partial Mayo score, Mean” value ([2]; Week 2) was 4.4±1.7 and 4.4. The “Partial Mayo score, Median” value ([2]; Week 2) was 5.0, the “Partial Mayo score, Minimum” value ([2]; Week 2) was 0 and the “Partial Mayo score, Upper quartile” value ([2]; Week 2) was 6.0. For the same compound, the “Partial Mayo score, difference in mean between Example 1 and Comparative Example 1” value (“Partial Mayo score, difference” for short) ([2]; Week 2) was −0.55, the “Partial Mayo score, Lower quartile” value ([2]; Week 4) was 2.0 and the “Partial Mayo score, Maximum” value ([2]; Week 4) was 8. For the same compound, the “Partial Mayo score, Mean” value ([2]; Week 4) was 3.5±2.0 and 3.5, the “Partial Mayo score, Median” value ([2]; Week 4) was 3.0 and the “Partial Mayo score, Minimum” value ([2]; Week 4) was 0. The “Partial Mayo score, Upper quartile” value ([2]; Week 4) was 5.0, the “Partial Mayo score, difference” value ([2]; Week 4) was −1.16 and the “Difference in remission rates, Example 1 vs Comparative Example 1 (placebo)” value ([2]; Week 8) was 19.6%. For the same compound, the “Difference in response rates, Example 1 vs Comparative Example 1 (placebo)” value ([2]; Week 8) was 37.3%, the “Mayo score, Lower quartile” value ([2]; Week 8) was 2.0 and the “Mayo score, Maximum” value ([2]; Week 8) was 9. The “Mayo score, Mean” value ([2]; Week 8) was 4.0±2.4 and 4.0, the “Mayo score, Median” value ([2]; Week 8) was 4.0 and the “Mayo score, Minimum” value ([2]; Week 8) was 0. For the same compound, the “Mayo score, Upper quartile” value ([2]; Week 8) was 5.0, the “Mayo score, difference in mean between Example 1 and Comparative Example 1” value ([2]; Week 8) was −2.14 and the “Partial Mayo score, Lower quartile” value ([2]; Week 8) was 2.0. The “Partial Mayo score, Maximum” value ([2]; Week 8) was 8, the “Partial Mayo score, Mean” value ([2]; Week 8) was 3.1±2.1 and 3.1 and the “Partial Mayo score, Median” value ([2]; Week 8) was 3.0. For the same compound, the “Partial Mayo score, Minimum” value ([2]; Week 8) was 0, the “Partial Mayo score, Upper quartile” value ([2]; Week 8) was 4.0 and the “Partial Mayo score, difference” value ([2]; Week 8) was −1.63. For the same compound, the Remission cases ([2]; Week 8, 51 cases analyzed) was 12, the Response cases ([2]; Week 8, 51 cases analyzed) was 32 and the Remission rate ([2]; Week 8, all subjects) was 23.5%. For the same compound, the Response rate ([2]; Week 8, all subjects) was 62.7%, the “Estimate of odds ratio of Example 1 to Comparative Example 1 (placebo group), response rate” value ([2]; Week 8, logistic regression model) was 5.35 and the Remission rate ([2]; body weight 50 kg or more and disease period less than 5 years (7/22 cases)) was 31.8%. It also gave a Response rate ([2]; body weight 50 kg or more and disease period less than 5 years (16/22 cases)) of 72.7%, a Response rate ([2]; body weight 50 kg or more but less than 60 kg (9/13 cases)) of 69.2% and a Response rate ([2]; body weight less than 50 kg (5/9 cases)) of 55.6%. For the same compound, the Response rate ([2]; disease for 1 year or more but less than 5 years (13/21 cases)) was 61.9%, the Response rate ([2]; disease for 5 years or more (13/24 cases)) was 54.2% and the Response rate ([2]; disease for less than 1 year (6/6 cases)) was 100.0%. The Response rate ([2]; disease occurring for the first time (3/5 cases)) was 60.0%, the Response rate ([2]; disease relapsing (29/46 cases)) was 63.0% and the Response rate ([2]; females (13/20 cases)) was 65.0%. For the same compound, the Response rate ([2]; left-sided colitis subjects (19/29 cases)) was 65.5%, the Response rate ([2]; less than 1 month after remission induction therapy started (8/13 cases)) was 61.5% and the Response rate ([2]; males (19/31 cases)) was 61.3%. It also gave a Response rate ([2]; most active site at S or Rs and disease period less than 5 years (9/10 cases)) of 90.0%, a Response rate ([2]; most active site of mucosal inflammation at Ra or Rb (15/28 cases)) of 53.6% and a Response rate ([2]; most active site of mucosal inflammation at S or Rs (17/23 cases)) of 73.9%. The Response rate ([2]; not receiving enema agent or suppository therapy in the active stage this time (21/34 cases)) was 61.8%, the Response rate ([2]; pancolitis subjects (13/22 cases)) was 59.1% and the Response rate ([2]; received enema agent or suppository therapy but terminated due to insufficient effect (11/17 cases)) was 64.7%. For the same compound, the Response rate ([2]; relapsing subjects, disease period less than 5 years (16/22 cases)) was 72.7%, the Response rate ([2]; relapsing subjects, stool frequency 6 times or less per day (25/32 cases)) was 78.1% and the Response rate ([2]; stool frequency 6 times or less per day and disease period less than 5 years (16/20 cases)) was 80.0%. For the same compound, the Response rate ([2]; stool frequency 6 times or less per day before administration (28/37 cases)) was 75.7%, the Response rate ([2]; stool frequency 7 times or more per day before administration (4/14 cases)) was 28.6% and the Response rate ([2]; subjects intolerant to a 5-ASA preparation (2/2 cases)) was 100.0%. It also gave a Response rate ([2]; subjects intolerant to a corticosteroid preparation (0/1 case)) of 0.0%, a Response rate ([2]; subjects on whom a 5-ASA preparation had an insufficient effect (28/46 cases)) of 60.9% and a Response rate ([2]; subjects on whom a corticosteroid preparation had an insufficient effect (2/2 cases)) of 100.0%.
